Results as given in patent US20230292776A1, “GAS PHASE TREATMENT OF PRODUCE” (priority 2022, published 2023).

Tests used:
[1] = system: avocados; design: species or system avocado; conditions: in vivo
Experimental: Example 11. The ripening characteristics of avocados exposed to AITC vapor was analyzed. Treatment groups consisted of avocados that were: exposed to the vapor of 125 μL of AITC in a Petri dish for 30 min and 18 hours; exposed to the vapor of 500 μL of AITC for 30 minutes and 18 hours; untreated and kept 18 hours in a bin; and treated with a coating agent. Two sets of the preceding test groups were studied. One set was treated when cold along with coated fruit (i.e., fruit treated with a coating agent (95 wt % glyceryl monostearate and 5 wt % sodium stearate) and another set was treated when warm (one day out of cold storage). Daily measurements were made of respiration and firmness (using a durometer). At the start of the test, the avocados were placed in cold storage. After one day, the cold treated avocados were treated with AITC directly after removal from cold storage. The coated group was treated at this time. The warm treated avocados were allowed to warm to room temperature. On the second day, measurements were begun on the cold treated avocados and AITC treatments began on the warm treated samples. On the third day, measurements began on the warm treated groups. […]
Example 23: The ripening characteristics of avocados exposed to AITC vapor, a coating agent (95 wt % glyceryl monostearate and 5 wt % sodium stearate), and AITC plus the coating agent was analyzed. […]

[2] = system: Penicillium digitatum (Pd); assay: Antifungal activity of vapor against Penicillium digitatum (Pd) in wounded, infected mandarins; type: in vivo; conditions: for effect on Pd mold: Example 5, assessed after 6 days; for infected mandarins: Example 6
[3] = system: Penicillium digitatum (Pd); assay: as above; type: in vivo; conditions: for effect on Pd mold: Example 5, 125 μL, assessed after 6 days
Experimental: Example 1. The antifungal activity of diallyl disulfide (DADS) vapor against Penicillium digitatum (Pd) was tested in mandarins. All samples were wounded by puncturing with a screw and infected by dispensing 1000 Pd spores suspended in 10 μL of water into each wound. The test groups consisted of mandarins that were: untreated; dipped in a solution of 1 g/L of imazalil; and exposed for 72 hours to the vapor of 3 mL of DADS in a Petri dish.
Example 2. The antifungal activity of allyl isothiocyanate (AITC) and DADS vapor was tested against Pd and Penicillium italicum (Pi) in mandarins. All samples were wounded by puncturing with a screw. Mandarins were infected by dispensing either 1000 Pd spores or 1000 Pi spores suspended in 10 μL into the wound. The test groups consisted of mandarins that were: uninfected and untreated; uninfected and treated by dipping in a solution of 1 g/L of imazalil; infected with Pd and untreated; infected with Pd and exposed to AITC; infected with Pd and exposed to DADS; infected with Pi and untreated; infected with Pi and exposed to AITC; and infected with Pi and exposed to DADS. Exposure to AITC or DADS consisted of exposing the mandarins for 72 hours to the vapor of 3 mL of the respective compound dispensed in a Petri dish.
Example 3. The antifungal activity of a reduced dose of AITC vapor against Pd in mandarins was tested. All samples were wounded by puncturing with a screw. Mandarins were infected by dispensing 1000 Pd spores suspended in 10 μL of water into each wound. The test groups consisted of mandarins that were: uninfected and untreated; infected with Pd and untreated; and exposed to the vapor of 500 μL of AITC in a Petri dish for 72 hours.
Example 4. The antifungal activity of a range of AITC vapor concentrations was tested against Pd in mandarins. All mandarins were wounded by puncturing with a screw and infected by dispensing 1000 Pd spores suspended in 10 μL of water in each wound. The fruit was then placed in an airtight container, a range of AITC volumes were disposed onto a Whatman filter paper disc, the disc was suspended in front of a battery-powered fan, and the container closed for 18 hours. The mandarins were then left at ambient temperature and high humidity for 6 days. The test groups were mandarins that were infected and untreated, and infected and treated with 62.5 μL 125 μL 250 μL and 500 μL on the filter paper disc. […] FIG. 6 is a bar graph showing incidence (% infected) for the test groups.
Example 5. The antifungal activity of a range of AITC vapor exposure times was tested to determine the effects against Pd in mandarins. All samples were wounded by puncturing with a screw. Mandarins were infected by dispensing 1000 Pd spores suspended in 10 μL of water in the wound. The fruit was then placed in an airtight container, 125 μL of AITC was dispensed onto a Whatman filter paper disc, the disc suspended in front of a battery-powered fan, and the container closed for 15 minutes to 2 hours. The test groups were then left at ambient temperature, high humidity, and assessed for Pd mold after 6 days. The test groups consisted of mandarins that were: uninfected and untreated; infected and untreated; infected and treated with 0.5 g/L imazalil; infected, treated with 125 μL of AITC on the filter paper, and exposed to the vapor for 15 minutes, 30 minutes, 1 hour, and 2 hours.

Structure (SMILES)	effect on avocado peel and firmness [1]	inhibition of fungal growth (Pd) ([2]; Example 2, mandarins, 72 hours vapor of 3 mL)	Pd mold growth ([2]; Example 4, doses of 125 μL, 250 μL & 500 μL, airtight container, 18 hours, 6 days)	effect on Pd mold ([2]; 125 μL (730 ppm), 30 min exposure)	effect on Pd mold ([2]; 125 μL, 1 hour exposure)	infected mandarins ([2]; 125 μL, 30 minutes, treated after 24 hours)	infected mandarins ([2]; 125 μL, 30 minutes, treated after 48 hours)	infected mandarins ([2]; 125 μL, 30 minutes, treated after 72 hours)	infected mandarins ([2]; 125 μL, 30 minutes, treated after 96 hours)	infected mandarins ([2]; 125 μL, 30 minutes, treated immediately after infection (0 hours))	effect on Pd infection at lower dose ([2]; Example 19, 62.5 μL (50% of the minimum inhibitory concentration), 30 minutes)	Pd infection ([3]; Example 3, mandarins, vapor of 500 μL in a Petri dish for 72 hours)	severity of Pd infection ([3]; Example 4, 62.5 μL on filter paper disc, airtight container with fan, 18 hours, 6 days)	effect on Pd mold ([3]; 15 minute exposure)	effect on Pd mold ([3]; 2 hour exposure)	reduction of the incidence of Pd mold compared to the untreated samples ([3]; Example 1, mandarins, 72 hours vapor of 3 mL in a Petri dish)	reduction of the incidence of Pd mold compared to imazalil treated samples ([3]; Example 1, mandarins, 72 hours vapor of 3 mL, imazalil 1 g/L dip)	reduction of the incidence of Pd mold compared to untreated/infected test group ([3]; Example 2, mandarins, 72 hours vapor of 3 mL in a Petri dish)
C=CCN=C=S [AITC, allyl isothiocyanate]	causes darkening and thickening of the avocado peel and a prolonged feeling a firmness	approximately 100%	substantially prevented the growth mold	greatly reduced severity of Pd mold infection	greatly reduced severity and incidence of Pd mold	8.3%	25%	16.7%	81.6%	58.3%	tends to reduce the severity of infection, but not eliminate the incidence of infection	substantially prevented Pd infections	reduced the severity of infection relative to the untreated group	little effect on Pd mold	substantially eliminated the mold	–	–	–
C=CCSSCC=C [DADS, diallyl disulfide]	–	–	–	–	–	–	–	–	–	–	–	–	–	–	–	95.8%	19.1%	85%
